We go through 16 compounds from patent US20230303539A1, “IMMUNOREGULATORY COMPOUND AND ANTITUMOR APPLICATION THEREOF” (SHANGHAITECH UNIVERSITY, priority 2020, published 2023).

A value given as a limit tells only on which side of the number the result lay.

Holding throughout (type): cell-based
Experiment [1] deals with multiple myeloma cancer cells MM.1S. Nature of the experiment: Cell proliferation inhibition (cell viability, CCK-8) in MM.1S. As to conditions: Homo sapiens, MM1.S; MM.1S cells, 72 h treatment, CCK-8 cell viability. The source says: (§1) The tested cell lines used were: Multiple myeloma cell line MM.1S, human Burkitt's lymphoma cell line Daudi, human acute promyelocytic leukemia cell line NB4, human mantle cell lymphoma cell line JEKO-1, human B-cell lymphoma cell line SU-DHL-4, human mantle cell lymphoma cell line Mino, human diffuse large B-cell lymphoma cell line TMD8, human B-cell lymphoma cell line DOHH2, PBMCs cell and human diffuse large B-cell lymphoma cell line WSU-DLCL2, which were purchased from ATCC (American type Culture Collection) or Cell Bank/Stem Cell Bank, Chinese Academy of Sciences. The medium was RPMI1640 supplemented with 10% FBS (fetal calf serum) and 1% Penicillin-Streptomycin. The cells used were identified as correct cells by STR cells, and were negative for mycoplasma through routine inspections.
(§2) IC50 values of the compounds of the present disclosure (including the compounds in Table 1 and compounds of examples 1-23) were measured using Cell Titer Blue, Cell Titer GLO, or WST reagent from Promega Company. Assay details are as follows: Cells were seeded in 100 μL RPMI1640 medium containing serum at a density of 15,000 cells/well. After 24 h, the inoculated cells were treated with diluted commercial inhibitor and the compounds of the present disclosure to be tested after serial dilution. After the cells were treated with the compounds of the present disclosure to be tested for 72 h, cell viability was determined after adding the cell viability detection kit listed above according to the reagent operating instructions. The negative control was DMSO, and the positive control was a commercial inhibitor, both of which were used to treat the cells through the same method as that of the compounds of the present disclosure. The growth inhibition of the compounds of the present disclosure on cells was plotted by Prism Graphpad software, and the IC50 values of the compounds of the present disclosure were calculated therefrom.
(§3) We tested the activities of the compounds of the present invention (including the compounds in Table 1 and Examples 1-23 compounds) in multiple myeloma cancer cells MM.1S cell and B lymphoma cells Daudi through a dose-dependent manner. The cells were treated with the compounds of the present invention at 10 different successively decreasing concentrations (starting at the highest concentration of […]; 5-fold serial dilutions) for 72 h, and then the cell viability determination was performed in accordance with CCK-8 reagent operating instructions.

For another experiment, the system named is B lymphoma cells Daudi. Nature of the experiment: Cell proliferation inhibition (cell viability, CCK-8) in Daudi. To be noted: Homo sapiens, 72 h treatment, CCK-8 cell viability.
Text: as §1, §2, §3

The test system of a further experiment is TNF-α. Kind of experiment: TNF-α inhibition in LPS-stimulated PBMC cells (ELISA). As to conditions: LPS 1 ng/ml, 18-20 h, FIG. 2. On the procedure: PBMC cells were cultured at 37° C. in 5% CO2 atmosphere, and then seeded in 96-well plates at […]. […] Cells were incubated in medium with or without compounds for 1 h, then stimulated with lipopolysaccharide (LPS; 1 ng/ml), and continually cultured for 18-20 h. Then, the supernatant was collected, diluted with serum-free medium, and tested for TNF-α level by ELISA kit. IC50 was then calculated by Graphpad Prism 7.0. Down-regulation of TNF-α expression is an important way of anti-tumor effect of immunomodulators.

Experiment [2] deals with human diffuse large B-cell lymphoma cell line TMD8. Nature of the experiment: Cell proliferation inhibition (CCK-8) in TMD8. As to conditions: TMD8 cells, 72 h treatment, read-out: IC50 (half inhibitory concentration) in tumor cells, TMD8.
Text: as §1, with “The cells used were identified as correct cells by STR cells, and were negative for mycoplasma through routine inspections.” left out
(§4) IC50 values of the compounds of the present disclosure (including the compounds in Table 1 and compounds of examples 1-23) were measured using Cell Titer Blue, Cell Titer GLO, or WST reagent from Promega Company. […] After the cells were treated with the compounds of the present disclosure to be tested for 72 h, cell viability was determined after adding the cell viability detection kit listed above according to the reagent operating instructions. […] The growth inhibition of the compounds of the present disclosure on cells was plotted by Prism Graphpad software, and the IC50 values of the compounds of the present disclosure were calculated therefrom. […]

Experiment [3] concerns human B-cell lymphoma cell line DOHH2. Nature of the experiment: Cell proliferation inhibition (CCK-8) in DOHH2. As to conditions: DOHH-2, DOHH2 cells, 72 h treatment, read-out: IC50 (half inhibitory concentration) in tumor cells, DOHH2.
Text: as §1, with “The cells used were identified as correct cells by STR cells, and were negative for mycoplasma through routine inspections.” left out
as §4

In experiment [4] the test system is human diffuse large B-cell lymphoma cell line WSU-DLCL2. Kind of experiment: Cell proliferation inhibition (CCK-8) in WSU-DLCL2. To be noted: WSUDLCL2, WSU-DLCL2 cells, 72 h treatment, read-out: IC50 (half inhibitory concentration) in tumor cells, WSU-DLCL2.
Text: as §1, with “The cells used were identified as correct cells by STR cells, and were negative for mycoplasma through routine inspections.” left out
as §4

Experiment [5] deals with human mantle cell lymphoma cell line Mino. Nature of the experiment: Cell proliferation inhibition (CCK-8) in Mino. To be noted: MINO cells, 72 h treatment, read-out: IC50 (half inhibitory concentration) in tumor cells, MINO.
Text: as §1, with “The cells used were identified as correct cells by STR cells, and were negative for mycoplasma through routine inspections.” left out
as §4

With `Cc1nc2cccc(NCc3ccc(CN4CCSCC4)cc3)c2c(=O)n1C1CCC(=O)NC1=O` (stereo not drawn) [SIAIS313074, 3-(2-methyl-4-oxo-5-((4-(thiomorpholinomethyl)benzyl)amino)quinazolin-3(4H)-yl)piperidine-2,6-dione], the IC50 in experiment [1] came to 0.0106 ± 0.00195 µM; with B lymphoma cells Daudi, 0.0587 ± 0.0224 µM. The “inhibition of the level of TNF-α (in words)” value (from here on “inhibition”) in the experiment on TNF-α is “better inhibitory activities than CC-122”.
`Cc1nc2cccc(N)c2c(=O)n1C1CCC(=O)NC1=O` (stereo not drawn) [CC-122, Avadomide, reference compound]: the IC50 in experiment [1] was 0.0218 ± 0.0043 µM; in the experiment on B lymphoma cells Daudi, 0.158 ± 0.00948 µM; in experiment [2], 0.492 µM; in experiment [3], greater than 1 µM; in experiment [4], greater than 1 µM; in experiment [5] it was 0.055 µM. Moreover, the “inhibition” value with TNF-α was “the level of TNF-α was inhibited in a dose-dependent manner”.
`Cc1nc2cccc(NCc3ccc(CN4CCCCCC4)cc3)c2c(=O)n1C1CCC(=O)NC1=O` (stereo not drawn) [SIAIS313087, 3-(5-((4-(azepan-1-ylmethyl)benzyl)amino)-2-methyl-4-oxoquinazolin-3(4H)-yl)piperidine-2,6-dione]: the IC50 was found to be 0.00482 ± 0.00236 µM in experiment [1] and 0.0435 ± 0.0179 µM in the experiment with B lymphoma cells Daudi. In the experiment on TNF-α, the “inhibition” value is listed as “better inhibitory activities than CC-122”.
Regarding `Cc1nc2cccc(NCc3ccc4c(c3)OCO4)c2c(=O)n1C1CCC(=O)NC1=O` (stereo not drawn) [SIAIS264177, 3-(5-((benzo[d][1,3]dioxol-5-ylmethyl)amino)-2-methyl-4-oxoquinazolin-3(4H)-yl)piperidine-2,6-dione], the IC50 was 0.0347 ± 0.00529 µM in experiment [1] and 0.222 ± 0.0409 µM in the experiment with B lymphoma cells Daudi.
Taken in the same sequence, the figures for `Cc1nc2cccc(NCc3ccc(CNC45CC6CC(CC(C6)C4)C5)cc3F)c2c(=O)n1C1CCC(=O)NC1=O` (stereo not drawn) [SIAIS355049, 3-(5-((4-((adamantan-1-ylamino)methyl)-2-fluorobenzyl)amino)-2-methyl-4-oxoquinazolin-3(4H)-yl)piperidine-2,6-dione] were 0.00561 ± 0.00241 µM and 0.0829 ± 0.026 µM.
With `Cc1nc2cccc(NCc3ccc(CN4CCCCC4)cc3)c2c(=O)n1C1CCC(=O)NC1=O` (stereo not drawn) [SIAIS313069, 3-(2-methyl-4-oxo-5-((4-(piperidin-1-ylmethyl)benzyl)amino)quinazolin-3(4H)-yl)piperidine-2,6-dione], the figures for the IC50 (in experiment [1]; in the experiment with B lymphoma cells Daudi) were 0.0215 ± 0.00584 µM and 0.129 ± 0.0188 µM, respectively.
In experiment [1], `Cc1nc2cccc(NCc3ccc(CNC4C5CC6CC(C5)CC4C6)cc3)c2c(=O)n1C1CCC(=O)NC1=O` [SIAIS264172, 3-(5-((4-(((1R,2s,3S,5r)-adamantan-2-ylamino)methyl)benzyl)amino)-2-methyl-4-oxoquinazolin-3(4H)-yl)piperidine-2,6-dione] yielded an IC50 of 0.00252 ± 0.00068 µM.
For the compound `Cc1nc2cccc(NCc3ccccc3F)c2c(=O)n1C1CCC(=O)NC1=O` (stereo not drawn) [SIAIS264123, 3-(5-((2-fluorobenzyl)amino)-2-methyl-4-oxoquinazolin-3(4H)-yl)piperidine-2,6-dione], the IC50 in experiment [1] was found to be 0.0575 ± 0.0115 µM; in the experiment on B lymphoma cells Daudi it was 0.322 ± 0.0221 µM.
Taken in the same sequence, the figures for `Cc1nc2cccc(NCc3ccc(CNC45CC6CC(CC(C6)C4)C5)cc3)c2c(=O)n1C1CCC(=O)NC1=O` [SIAIS264156, 3-(5-((4-(((1R,3R,5S)-adamantan-1-ylamino)methyl)benzyl)amino)-2-methyl-4-oxoquinazolin-3(4H)-yl)piperidine-2,6-dione] were 0.00964 ± 0.00083 µM and 0.0448 ± 0.0196 µM.
As for `Cc1nc2cccc(NCc3ccc(CN4CCCCCC4)cn3)c2c(=O)n1C1CCC(=O)NC1=O` (stereo not drawn) [SIAIS355062, 3-(5-(((5-(azepan-1-ylmethyl)pyridin-2-yl)methyl)amino)-2-methyl-4-oxoquinazolin-3(4H)-yl)piperidine-2,6-dione], the IC50 in experiment [1] was determined as 0.0221 ± 0.012 µM; in the experiment on B lymphoma cells Daudi, 0.105 ± 0.0199 µM.
For `Cc1nc2cccc(NCc3ccc(CNC45CC6CC(CC(C6)C4)C5)cn3)c2c(=O)n1C1CCC(=O)NC1=O` (stereo not drawn) [SIAIS355068, 3-(5-(((5-(((adamantan-1-yl)amino)methyl)pyridin-2-yl)methyl)amino)-2-methyl-4-oxoquinazolin-3(4H)-yl)piperidine-2,6-dione], the IC50 in experiment [1] came out at 0.0377 ± 0.0121 µM; with B lymphoma cells Daudi it was 0.139 ± 0.022 µM.
In the same order, the values of `Cc1nc2cccc(NCC3CCC(C(=O)NC45CC6CC(CC(C6)C4)C5)CC3)c2c(=O)n1C1CCC(=O)NC1=O` (stereo not drawn) [SIAIS313068, N-((3s,5s,7s)-adamantan-1-yl)-4-(((3-(2,6-dioxopiperidin-3-yl)-2-methyl-4-oxo-3,4-dihydroquinazolin-5-yl)amino)methyl)cyclohexanecarboxamide] are 0.0837 ± 0.00279 µM and 0.492 ± 0.0332 µM.
As to `Cc1nc2cccc(NCCc3ccccc3)c2c(=O)n1C1CCC(=O)NC1=O` (stereo not drawn) [SIAIS264103, 3-(2-methyl-4-oxo-5-(phenethylamino)quinazolin-3(4H)-yl)piperidine-2,6-dione], the IC50 in experiment [1] stood at 0.0873 ± 0.00518 µM; in the experiment on B lymphoma cells Daudi it was 0.826 ± 0.0373 µM.
As to `Cc1nc2cccc(NCc3ccc(CN4CCOCC4)cc3)c2c(=O)n1C1CCC(=O)NC1=O` (stereo not drawn) [SIAIS264067, 3-(2-methyl-5-((4-(morpholinomethyl)benzyl)amino)-4-oxoquinazolin-3(4H)-yl)piperidine-2,6-dione], the IC50 in experiment [1] turned out to be 0.00859 ± 0.00132 µM; with B lymphoma cells Daudi, 0.0546 ± 0.00735 µM. Further, in the experiment on TNF-α, the “inhibition” value is “better inhibitory activities than CC-122”.
Consider `Cc1nc2cccc(NCc3ccc(CN4CC(C)CC(C)C4)cc3)c2c(=O)n1C1CCC(=O)NC1=O` (stereo not drawn) [SIAIS313075, 3-(5-((4-((3,5-dimethylpiperidin-1-yl)methyl)benzyl)amino)-2-methyl-4-oxoquinazolin-3(4H)-yl)piperidine-2,6-dione], for which the IC50 in experiment [1] was found to be 0.0164 ± 0.00282 µM; with B lymphoma cells Daudi it was 0.131 ± 0.0276 µM.
Taken in the same sequence, the figures for `Cc1nc2cccc(NCc3ccc(CO)cc3)c2c(=O)n1C1CCC(=O)NC1=O` (stereo not drawn) [SIAIS313055, 3-(5-((4-(hydroxymethyl)benzyl)amino)-2-methyl-4-oxoquinazolin-3(4H)-yl)piperidine-2,6-dione] were 0.0364 ± 0.00674 µM and 0.166 ± 0.0147 µM.
